Data published in the NIST ThermoML archive (doi:10.1016/j.jct.2017.07.014).
± gives the expanded uncertainty stated by the source.

Assays:
[1] = refractive index (other wavelength) (dimensionless); details: 108 kPa, Liquid, Wavelength=632.8 nm, minimum deviation method
[2] = refractive index (other wavelength) (dimensionless); xn = mol fraction of the nth substance listed; details: 108 kPa, Liquid, Wavelength=632.8 nm, minimum deviation method, x2 = 0

CCCCn1cc[n+](C)c1.F[P-](F)(F)(F)(F)F [1-butyl-3-methylimidazolium hexafluorophosphate]
refractive index ([1]; 315.21 K): 1.4038 ± 0.0003
refractive index ([1]; 317.26 K): 1.4032 ± 0.0003
refractive index ([1]; 319.23 K): 1.4027 ± 0.0003
refractive index ([1]; 321.47 K): 1.4021 ± 0.0003
refractive index ([1]; 323.47 K): 1.4016 ± 0.0003
refractive index ([1]; 325.4 K): 1.4011 ± 0.0003

CCO [ethanol]
refractive index ([1]; 315.24 K): 1.3509 ± 0.0002
refractive index ([1]; 317.21 K): 1.3501 ± 0.0002
refractive index ([1]; 319.26 K): 1.3492 ± 0.0002
refractive index ([1]; 321.31 K): 1.3483 ± 0.0002
refractive index ([1]; 323.3 K): 1.3474 ± 0.0002
refractive index ([1]; 325.39 K): 1.3465 ± 0.0002

CCO [ethanol] + CCCCn1cc[n+](C)c1.F[P-](F)(F)(F)(F)F
refractive index ([2]; 315.24 K): 1.3509 ± 0.0002
refractive index ([2]; 317.21 K): 1.3501 ± 0.0002
refractive index ([2]; 319.26 K): 1.3492 ± 0.0002
refractive index ([2]; 321.31 K): 1.3483 ± 0.0002
refractive index ([2]; 323.3 K): 1.3474 ± 0.0002
refractive index ([2]; 325.39 K): 1.3465 ± 0.0002
